Data set [1] relates to vena cave inferior of the rat (film of fibrin). Briefly: fibrinolytic activity, procedure of TODD adapted to the vena cave inferior of the rat. In kind it is in vivo. The following applies: for change in vivo at 10 mg/kg: ip, 40 min, read-out: Fibrinolytic index in % (average increase in fibrinolytic effect compared with control animals); for fibrinolytic index: 100 mg/kg. The procedure: Forschumg, 20, 358, 1970. […]
Male rats weighing 150 to 200 g. and having fasted for 24 hours were divided into two groups. The animals of one group were given the above-indicated dose of the compound to be tested. […] After 40 minutes, the treated animals were sacrificed simultaneously with the control animals, the veins immediately removed, rinsed with physiological salt solution, frozen and cut into pieces having a thickness of 20 microns. On each piece, a film of fibrin was formed by the application of a bovine fibrinogenous solution, rich in plasminogen, and of a thrombin solution.
All the preparations were then fixed with a 10% solution of neutral formol, stained with haematoxylin of Harris and covered with gelatine.
Value = 0: The film of fibrin was intact.
Value = 1: The lysis zones in the endothelium were disseminated.
Value = 2:The lysis zones were larger and more or less joined.
Value = 3:The fibrin in contact with the endothelium was almost completely decomposed.
The fibrinolytic index represents the average of the values of the reactions obtained for each incubation.

Data set [2] is described as follows: acute toxicity in the rat. The note with it: rat, in vivo. The procedure:
(§1) A certain number of toxicity tests were also carried out on rats and mice and in particular acute toxicity tests.

For a further data set, the system named is gastric ulcers. Kind of data set: in vivo. The following applies: for irritant (ulcer-producing) action relative to Compound A: fasting rats, gastric ulcers, times as irritant as Compound A. Here is the method: (§2) As another means of evaluating the utility of the compounds of the invention as anti-inflammatory agents in comparison with the three substances indicated above, trials were carried out on fasting rats in order to determine the degree to which the compounds studied produced gastric ulcers in the animals so treated.

The next data set is described as follows: in vivo. The following applies: rat, in vivo. Here is the method: as §2
In another data set the test system is carragheenin oedema. Kind of data set: JANSSEN test, carragheenin-induced paw oedema in the rat. It is filed as in vivo. The note with it: for ED50: 3 h, read-out: AD50 (amount of compound required to ensure a 50% reduction of the oedema); for anti-inflammatory activity (in words): in vivo. Here is the method:
The anti-inflammatory activity of the compounds of the invention was determined on the rat by means of the JANSSEN test involving the use of carragheenin as inflammatory agent.
Into the plantar aponeurosis of the back paws of a group of female rats 0.05 ml. of a 1 % suspension of carragheenin was injected one hour after the compound to be tested had been administered by oral route. The size of the paw was measured by plethysmograph both before and three hours after administration of the carragheenin. The anti-inflammatory activity was calculated as the percentage of reduction of the resulting oedema as compared with control animals which had received the same dose of carragheenin without any anti-inflammatory agent. The AD50 was taken as the amount of compound required to ensure a 50% reduction of the oedema.

Another data set has as its system rats. Briefly: acute toxicity in the rat. The note with it: compared with indomethacin and/or phenylbutazone. Here is the method: as §1
A short description of data set [3]: acute toxicity in the mouse. The note with it: in vivo, seven days of observation.
The mark [4] stands for this setting: 10 mg/kg, intraperitoneal, rat, 40 minutes.

The structures appear in SMILES notation. Where two headings read alike, the source gives them in different places. Some results are limits rather than exact numbers.

In the case of `CCCc1c(C(=O)c2ccccn2)c2ccccc2n1CCCN(C)C` [(1-γ-dimethylaminopropyl-2-n-propyl-3-indolyl) (2-pyridyl) ketone], the change in vivo at 10 mg/kg in data set [1] (Rattus norvegicus) came to 66%.

`CCCc1[nH]c2ccccc2c1C(=O)c1ccccn1` [(2-n-propyl-3-indolyl)(2-pyridyl) ketone, reference compound]: the fibrinolytic index in data set [1] (rat) turned out to be 2%. In the case of `COc1ccc(-c2c(C(=O)c3ccccn3)c3ccccc3n2CCN(C)C)cc1` [[1-β-dimethylaminoethyl-2-(4-methoxy-phenyl)-3-indolyl] (2-pyridyl) ketone], the change in vivo at 10 mg/kg in data set [1] (Rattus norvegicus) was 45%.

Regarding `CN(C)CCn1c(-c2ccc(Cl)cc2)c(C(=O)c2cccnc2)c2ccccc21` [[1-β-dimethylaminoethyl-2-(4-chloro-phenyl)-3-indolyl] (3-pyridyl) ketone], the change in vivo at 10 mg/kg in data set [1] (Rattus norvegicus) worked out at 40%. Usually LD50 stands for the dose at which mortality reaches 50%. High values mean a less toxic substance, low ones a more toxic substance. As to `COc1ccc2c(c1)c(CC(=O)O)c(C)n2C(=O)c1ccc(Cl)cc1` [Indomethacin], the LD50 in data set [2] (po) came to 22.5 mg/kg. In the data set with gastric ulcers, the “irritant (ulcer-producing) action relative to Compound A” value is “sixty”. In addition, in the data set “in vivo”, the selectivity ratio was determined as 1.3. In addition, the ED50 with carragheenin oedema (Rattus norvegicus, po) amounted to 4 mg/kg. Further, the “anti-inflammatory activity (in words)” value in the data set with carragheenin oedema (rat) is “more powerful anti-inflammatory agent than Compound A”. Consider `CC(C)c1c(C(=O)c2ccccn2)c2ccccc2n1CCN(C)C` [(1-β-dimethylaminoethyl-2-isopropyl-3-indolyl) (2-pyridyl) ketone], for which the change in vivo at 10 mg/kg in data set [1] (Rattus norvegicus) stood at 21%. `CN(C)CCn1c(-c2ccccc2)c(C(=O)c2ccccn2)c2ccccc21` [(1-β-dimethylaminoethyl-2-phenyl-3-indolyl) (2-pyridyl) ketone]: in data set [1] (Rattus norvegicus), the change in vivo at 10 mg/kg is 50%.

Regarding `CN(C)CCn1c(-c2ccc(F)cc2)c(C(=O)c2ccncc2)c2ccccc21` [[1-β-dimethylaminoethyl-2-(4-fluoro-phenyl)-3-indolyl] (4-pyridyl) ketone], in data set [1] (Rattus norvegicus), the change in vivo at 10 mg/kg stood at 50%. Same read-out and setting: with `CN(C)CCn1c(-c2ccccc2)c(C(=O)c2cccnc2)c2ccccc21` [(1-β-dimethylaminoethyl-2-phenyl-3-indolyl) (3-pyridyl) ketone] the figure was 96%. Take `CC(C)c1[nH]c2ccccc2c1C(=O)c1ccncc1` [(2-isopropyl-3-indolyl)(4-pyridyl) ketone, reference compound]: in data set [1] (setting [4]), the change in vivo at 10 mg/kg came to 10%. On to `CC(C)c1c(C(=O)c2cccnc2)c2ccccc2n1CCCN1CCCCC1` [(1-γ-piperidinopropyl-2-isopropyl-3-indolyl) (3-pyridyl) ketone], for which the change in vivo at 10 mg/kg in data set [1] (Rattus norvegicus) amounted to 18%.

Consider `CC(C)c1[nH]c2ccccc2c1C(=O)c1cccnc1` [(2-isopropyl-3-indolyl) (3-pyridyl) ketone, reference compound], for which the change in vivo at 10 mg/kg in data set [1] (setting [4]) is 5%.

Turning to `CN(C)CCn1c(-c2ccc(Cl)cc2)c(C(=O)c2ccncc2)c2ccccc21` [[1-β-dimethylaminoethyl-2-(4-chloro-phenyl)-3-indolyl] (4-pyridyl) ketone], the change in vivo at 10 mg/kg in data set [1] (Rattus norvegicus) was 42%. Turning to `CC(C)c1c(C(=O)c2ccncc2)c2ccccc2n1CCCN(C)C` [(1-γ-dimethylaminopropyl-2-isopropyl-3-indolyl) (4-pyridyl) ketone], the change in vivo at 10 mg/kg in data set [1] (Rattus norvegicus) came out at 30%.

As to `CC(C)c1c(C(=O)c2ccccn2)c2ccccc2n1C` [methyl / isopropyl / 2-pyridyl, (1-methyl-2-isopropyl-3-indolyl) (2-pyridyl) ketone], in data set [1] (setting [4]), the change in vivo at 10 mg/kg came out at 105%. Consider `CCCn1c(C(C)C)c(C(=O)c2cccnc2)c2ccccc21` [n-propyl / isopropyl / 3-pyridyl, (1-n-propyl-2-isopropyl-3-indolyl) (3-pyridyl) ketone], for which the change in vivo at 10 mg/kg in data set [1] (Rattus norvegicus) was 25%. In data set [2] (po), `CC(C)c1c(C(=O)c2cccnc2)c2ccccc2n1CCCN(C)C` [(1-γ-dimethylaminopropyl-2-isopropyl-3-indolyl) (3-pyridyl) ketone] showed an LD50 of over 2000 mg/kg. `CN(C)CCCn1c(-c2ccccc2)c(C(=O)c2cccnc2)c2ccccc21` [(1-γ-dimethylaminopropyl-2-phenyl-3-indolyl) (3-pyridyl) ketone]: in data set [1] (Rattus norvegicus), the change in vivo at 10 mg/kg was 46%. With `COc1ccc(-c2c(C(=O)c3cccnc3)c3ccccc3n2CCN(C)C)cc1` [[1-β-dimethylaminoethyl-2-(4-methoxy-phenyl)-3-indolyl] (3-pyridyl) ketone], the change in vivo at 10 mg/kg in data set [1] (Rattus norvegicus) came to 133%. Still for that read-out and setting: the value for `O=C(c1ccncc1)c1c(-c2ccc(Cl)cc2)n(CCN2CCCCC2)c2ccccc12` [[1-β-piperidinoethyl-2-(4-chloro-phenyl)-3-indolyl] (4-pyridyl) ketone] was 50%. On the same count and under the same terms, with `CC(C)c1c(C(=O)c2ccccn2)c2ccccc2n1CCCN1CCCCC1` [(1-γ-piperidinopropyl-2-isopropyl-3-indolyl) (2-pyridyl) ketone] the figure was 123%.

Turning to `CC(C)c1c(C(=O)c2cccnc2)c2ccccc2n1C` [Compound A, (1-methyl-2-isopropyl-3-indolyl) (3-pyridyl) ketone], the median lethal dose (LD50) in data set [2] (ip) amounted to 425 mg/kg; in data set [2] (po), 2400 mg/kg. In addition, the “toxicity (in words)” value in the data set with rats is “less toxic than both indomethacin and phenylbutazone”. In addition, the “distance of irritant dose from anti-inflammatory dose (in words)” value in the data set with gastric ulcers (compared with indomethacin, phenylbutazone or acetylsalicylic acid) is reported as “irritant dose is much farther removed from the anti-inflammatory dose”. Moreover, the selectivity ratio in the data set “in vivo” worked out at 20. Moreover, the LD50 at 168 h in data set [3] (ip, intraperitoneal route) stood at 3250 mg/kg; in data set [3] (po, intragastric route), 900 mg/kg. In the data set on carragheenin oedema (Rattus norvegicus, po), the ED50 came out at 15 mg/kg.

As for `CC(C)c1c(C(=O)c2ccncc2)c2ccccc2n1CCN(C)C` [(1-β-dimethylaminoethyl-2-isopropyl-3-indolyl) (4-pyridyl) ketone], in data set [1] (Rattus norvegicus), the change in vivo at 10 mg/kg was determined as 44%. Still for that read-out and setting: the value for `CC(C)c1c(C(=O)c2cccnc2)c2ccccc2n1CCN1CCCCC1` [piperidinoethyl / isopropyl / 3-pyridyl, (1-β-piperidinoethyl-2-isopropyl 3-indolyl) (3-pyridyl) ketone] was 77%.

On to `CC(C)c1c(C(=O)c2ccncc2)c2ccccc2n1C` [methyl / isopropyl / 4-pyridyl, (1-methyl-2-isopropyl-3-indolyl) (4-pyridyl) ketone], for which the change in vivo at 10 mg/kg in data set [1] (setting [4]) was determined as 165%. In the case of `CCCc1c(C(=O)c2ccccn2)c2ccccc2n1CCN(C)C` [(1-β-dimethylaminoethyl-2-n-propyl-3-indolyl) (2-pyridyl) ketone], the change in vivo at 10 mg/kg in data set [1] (Rattus norvegicus) was 50%.

Consider `COc1ccc(-c2c(C(=O)c3ccncc3)c3ccccc3n2CCN(C)C)cc1` [[1-β-dimethylaminoethyl-2-(4-methoxy-phenyl)-3-indolyl] (4-pyridyl) ketone], for which, in data set [1] (Rattus norvegicus), the change in vivo at 10 mg/kg stood at 42%. Same read-out and setting: with `CN(C)CCCn1c(-c2ccc(F)cc2)c(C(=O)c2cccnc2)c2ccccc21` [[1-γ-dimethylaminopropyl-2-(4-fluoro-phenyl)-3-indolyl] (3-pyridyl) ketone] the figure was 75%; with `CC(C)c1c(C(=O)c2cccnc2)c2ccccc2n1CCN(C)C` [(1-β-dimethylaminoethyl-2-isopropyl-3-indolyl) (3-pyridyl) ketone], 24%. `CC(=O)Oc1ccccc1C(=O)O` [Acetylsalicylic acid]: the “irritant (ulcer-producing) action relative to Compound A” value in the data set on gastric ulcers is “one-and-a-half”. In “in vivo”, the selectivity ratio came to 2. Also, in the data set on carragheenin oedema (Rattus norvegicus, po), the ED50 is 110 mg/kg. The “anti-inflammatory activity (in words)” value in the data set on carragheenin oedema (rat) is reported as “less active than Compound A”. Consider `CN(C)CCCn1c(-c2ccccc2)c(C(=O)c2ccccn2)c2ccccc21` [(1-γ-dimethylaminopropyl-2-phenyl-3-indolyl) (2-pyridyl) ketone], for which the change in vivo at 10 mg/kg in data set [1] (Rattus norvegicus) worked out at 46%. Compound `O=C(c1cccnc1)c1c(-c2ccccc2)[nH]c2ccccc12` [(2-phenyl-3-indolyl)(3-pyridyl) ketone, reference compound] came in with a fibrinolytic index in data set [1] (rat) of 20%. As to `CCCCC1C(=O)N(c2ccccc2)N(c2ccccc2)C1=O` [Phenylbutazone], the ED50 with carragheenin oedema (oral, rat, one hour before carragheenin, oedema measured three hours after) was 22 mg/kg. Moreover, the “anti-inflammatory activity (in words)” value with carragheenin oedema (rat) is “less active than Compound A”. `CN(C)CCn1c(-c2ccc(F)cc2)c(C(=O)c2cccnc2)c2ccccc21` [[1-β -dimethylaminoethyl-2-(4-fluoro-phenyl)-3-indolyl] (3-pyridyl) ketone]: the change in vivo at 10 mg/kg in data set [1] (Rattus norvegicus) was 90%.
